Results reported in patent US11807644B2 (PMV Pharmaceuticals, Inc., priority 2020, dated 2023).

The compounds below were run against T1, recombinant His-tag Y220C p53 DBD protein (Homo sapiens, UniProt P04637, Y220C) (assay: In vitro DNA binding activity assay (TR-FRET): binding of His-tag Y220C p53 DBD to biotin-labeled consensus DNA). Conditions: SC150 = concentration to increase DNA binding by […], His-tag Y220C p53 DBD, biotin-labeled consensus DNA.
T1 construct: recombinant His-tag Y220C p53 DBD protein (amino acids #˜94-312)
Assay type: biochemical

Row | Compound | Y220C SC150 (μM)
1 | CN1CCC(Nc2cccc3c2cc(-c2nnc(CNC(=O)[C@H]4C[C@@H]4c4ccccc4)s2)n3CC(F)(F)F)CC1 (racemic) [Compound 53B, (+/−)-(1S,2S)-N-[(5-{4-[(1-methylpiperidin-4-yl)amino]-1-(2,2,2-trifluoroethyl)-1H-indol-2-yl}-1,3,4-thiadiazol-2-yl)methyl]-2-phenylcyclopropane-1-carboxamide] | * (* = 0 μM ≤ SC150 < 0.1 μM)
2 | CN1CC[C@@H](Nc2cccc3c2cc(-c2noc(CNc4cccc5c4cnn5C)n2)n3CC(F)(F)F)[C@@H](F)C1 [Compound 463B, N-{[3-(4-{[(3S,4R)-3-fluoro-1-methylpiperidin-4-yl]amino}-1-(2,2,2-trifluoroethyl)-1H-indol-2-yl)-1,2,4-oxadiazol-5-yl]methyl}-1-methyl-1H-indazol-4-amine] | * (* = 0 μM ≤ SC150 < 0.1 μM)
3 | CN1CC[C@@H](Nc2cccc3c2cc(-c2noc(CNC(=O)c4cccc(N5CCOCC5)c4)n2)n3CC(F)(F)F)[C@@H](F)C1 [Compound 262B, N-{[3-(4-{[(3S,4R)-3-fluoro-1-methylpiperidin-4-yl]amino}-1-(2,2,2-trifluoroethyl)-1H-indol-2-yl)-1,2,4-oxadiazol-5-yl]methyl}-3-(morpholin-4-yl)benzamide] | * (* = 0 μM ≤ SC150 < 0.1 μM)
4 | COC(=O)NCc1nnc(-c2cc3c(N[C@@H]4CCN(C)C[C@@H]4F)cccc3n2CC(F)(F)F)s1 (racemic) [Compound 38B, (+/−)-methyl N-{[5-(4-{[(3R,4S)-3-fluoro-1-methylpiperidin-4-yl]amino}-1-(2,2,2-trifluoroethyl)-1H-indol-2-yl)-1,3,4-thiadiazol-2-yl]methyl}carbamate] | * (* = 0 μM ≤ SC150 < 0.1 μM)
5 | CN1CC[C@@H](Nc2cccc3c2cc(-c2noc(CNC(=O)c4cncn4C(C)(C)C)n2)n3CC(F)(F)F)[C@@H](F)C1 [Compound 270B, 1-tert-butyl-N-{[3-(4-{[(3S,4R)-3-fluoro-1-methylpiperidin-4-yl]amino}-1-(2,2,2-trifluoroethyl)-1H-indol-2-yl)-1,2,4-oxadiazol-5-yl]methyl}-1H-imidazole-5-carboxamide] | * (* = 0 μM ≤ SC150 < 0.1 μM)
6 | CN1CC[C@@H](Nc2cccc3c2cc(-c2noc(CNC(=O)c4ccn(C5CCCC5)c4)n2)n3CC(F)(F)F)[C@@H](F)C1 [Compound 319B, 1-cyclopentyl-N-{[3-(4-{[(3S,4R)-3-fluoro-1-methylpiperidin-4-yl]amino}-1-(2,2,2-trifluoroethyl)-1H-indol-2-yl)-1,2,4-oxadiazol-5-yl]methyl}-1H-pyrrole-3-carboxamide] | * (* = 0 μM ≤ SC150 < 0.1 μM)
7 | COCCn1cccc1C(=O)NCc1nc(-c2cc3c(N[C@@H]4CCN(C)C[C@@H]4F)cccc3n2CC(F)(F)F)no1 [Compound 538B, N-{[3-(4-{[(3S,4R)-3-fluoro-1-methylpiperidin-4-yl]amino}-1-(2,2,2-trifluoroethyl)-1H-indol-2-yl)-1,2,4-oxadiazol-5-yl]methyl}-1-(2-methoxyethyl)-1H-pyrrole-2-carboxamide] | * (* = 0 μM ≤ SC150 < 0.1 μM)
8 | COc1cc(S(C)(=O)=O)ccc1NCc1nnc(-c2cc3c(N[C@H]4CCN(C)C[C@H]4F)cccc3n2CC(F)(F)F)s1 [Compound 61B, N-[(3R,4S)-3-fluoro-1-methylpiperidin-4-yl]-2-(5-{[(4-methanesulfonyl-2-methoxyphenyl)amino]methyl}-1,3,4-thiadiazol-2-yl)-1-(2,2,2-trifluoroethyl)-1H-indol-4-amine] | * (* = 0 μM ≤ SC150 < 0.1 μM)
9 | CN1CC[C@@H](Nc2cccc3c2cc(-c2noc(CNC(=O)c4ccn(C5COC5)c4)n2)n3CC(F)(F)F)[C@@H](F)C1 [Compound 379B, N-{[3-(4-{[(3S,4R)-3-fluoro-1-methylpiperidin-4-yl]amino}-1-(2,2,2-trifluoroethyl)-1H-indol-2-yl)-1,2,4-oxadiazol-5-yl]methyl}-1-(oxetan-3-yl)-1H-pyrrole-3-carboxamide] | * (* = 0 μM ≤ SC150 < 0.1 μM)
10 | CN1CC[C@@H](Nc2cccc3c2cc(-c2noc(CNC(=O)c4cn(CCF)cn4)n2)n3CC(F)(F)F)[C@@H](F)C1 [Compound 306B, N-{[3-(4-{[(3S,4R)-3-fluoro-1-methylpiperidin-4-yl]amino}-1-(2,2,2-trifluoroethyl)-1H-indol-2-yl)-1,2,4-oxadiazol-5-yl]methyl}-1-(2-fluoroethyl)-1H-imidazole-4-carboxamide] | * (* = 0 μM ≤ SC150 < 0.1 μM)
11 | CN1CC[C@@H](Nc2cccc3c2cc(-c2noc(CNC(=O)c4ccn(C5CC5)c4)n2)n3CC(F)(F)F)[C@@H](F)C1 [Compound 218B, 1-cyclopropyl-N-{[3-(4-{[(3S,4R)-3-fluoro-1-methylpiperidin-4-yl]amino}-1-(2,2,2-trifluoroethyl)-1H-indol-2-yl)-1,2,4-oxadiazol-5-yl]methyl}-1H-pyrrole-3-carboxamide] | * (* = 0 μM ≤ SC150 < 0.1 μM)
12 | CN1CC[C@@H](Nc2cccc3c2cc(-c2noc(CNC(=O)c4ccn(C(C)(C)CF)n4)n2)n3CC(F)(F)F)[C@@H](F)C1 [Compound 548B, N-{[3-(4-{[(3S,4R)-3-fluoro-1-methylpiperidin-4-yl]amino}-1-(2,2,2-trifluoroethyl)-1H-indol-2-yl)-1,2,4-oxadiazol-5-yl]methyl}-1-(1-fluoro-2-methylpropan-2-yl)-1H-pyrazole-3-carboxamide] | * (* = 0 μM ≤ SC150 < 0.1 μM)
13 | CC(C)(C)n1ccc(C(=O)NCc2nc(-c3cc4c(N[C@@H]5CNCC[C@@H]5F)cccc4n3CC(F)(F)F)no2)c1 (racemic) [Compound 382B, rac-1-tert-butyl-N-{[3-(4-{[(3R,4S)-4-fluoropiperidin-3-yl]amino}-1-(2,2,2-trifluoroethyl)-1H-indol-2-yl)-1,2,4-oxadiazol-5-yl]methyl}-1H-pyrrole-3-carboxamide] | * (* = 0 μM ≤ SC150 < 0.1 μM)
14 | CCN1CC[C@@H](Nc2cccc3c2cc(-c2noc(CNC(=O)c4ccn(C5CCC(F)(F)C5)c4)n2)n3CC(F)(F)F)[C@@H](F)C1 (stereo partly drawn) [Compound 346B, 1-(3,3-difluorocyclopentyl)-N-{[3-(4-{[(3S,4R)-1-ethyl-3-fluoropiperidin-4-yl]amino}-1-(2,2,2-trifluoroethyl)-1H-indol-2-yl)-1,2,4-oxadiazol-5-yl]methyl}-1H-pyrrole-3-carboxamide] | * (* = 0 μM ≤ SC150 < 0.1 μM)
15 | COc1cc(S(C)(=O)=O)ccc1NCc1nc(-c2cc3c(N[C@@H]4CCNC[C@@H]4F)cccc3n2CC(F)(F)F)no1 (racemic) [Compound 188B, (+/−)-N-[(3R,4S)-3-fluoropiperidin-4-yl]-2-(5-{[(4-methanesulfonyl-2-methoxyphenyl)amino]methyl}-1,2,4-oxadiazol-3-yl)-1-(2,2,2-trifluoroethyl)-1H-indol-4-amine] | * (* = 0 μM ≤ SC150 < 0.1 μM)
16 | COCC1(c2cc(C(=O)NCc3nc(-c4cc5c(N[C@@H]6CCN(C)C[C@@H]6F)cccc5n4CC(F)(F)F)no3)cs2)CC1 [Compound 488B, N-{[3-(4-{[(3S,4R)-3-fluoro-1-methylpiperidin-4-yl]amino}-1-(2,2,2-trifluoroethyl)-1H-indol-2-yl)-1,2,4-oxadiazol-5-yl]methyl}-5-[1-(methoxymethyl)cyclopropyl]thiophene-3-carboxamide] | * (* = 0 μM ≤ SC150 < 0.1 μM)
17 | CN1CC[C@@H](Nc2cccc3c2cc(-c2noc(CNC(=O)c4csc(C(C)(C)O)c4)n2)n3CC(F)(F)F)[C@@H](F)C1 [Compound 425B, N-{[3-(4-{[(3S,4R)-3-fluoro-1-methylpiperidin-4-yl]amino}-1-(2,2,2-trifluoroethyl)-1H-indol-2-yl)-1,2,4-oxadiazol-5-yl]methyl}-5-(2-hydroxypropan-2-yl)thiophene-3-carboxamide] | * (* = 0 μM ≤ SC150 < 0.1 μM)
18 | CN1CC[C@@H](Nc2cccc3c2cc(-c2noc(CNC(=O)c4csc(N5CC6CC(C5)O6)n4)n2)n3CC(F)(F)F)[C@@H](F)C1 [Compound 525B] | ** (** = 0.1 μM ≤ SC150 < 0.5 μM)
19 | CN1CCC(Nc2cccc3c2cc(-c2nnc(CNc4ccc(S(C)(=O)=O)cc4)s2)n3CC(F)(F)F)CC1 [Compound 24B, 2-(5-{[(4-methanesulfonylphenyl)amino]methyl}-1,3,4-thiadiazol-2-yl)-N-(1-methylpiperidin-4-yl)-1-(2,2,2-trifluoroethyl)-1H-indol-4-amine] | ** (** = 0.1 μM ≤ SC150 < 0.5 μM)
20 | COc1ccc(NCc2nc(-c3cc4c(N[C@@H]5CCN(C)C[C@@H]5F)cccc4n3CC(F)(F)F)no2)cc1 [Compound 380B, N-[(3S,4R)-3-fluoro-1-methylpiperidin-4-yl]-2-(5-{[(4-methoxyphenyl)amino]methyl}-1,2,4-oxadiazol-3-yl)-1-(2,2,2-trifluoroethyl)-1H-indol-4-amine] | * (* = 0 μM ≤ SC150 < 0.1 μM)
21 | COCC1(n2ccc(C(=O)NCc3nc(-c4cc5c(N[C@@H]6CCOC[C@@H]6F)cccc5n4CC(F)(F)F)no3)c2)CC1 [Compound 495B, N-{[3-(4-{[(3R,4R)-3-fluorooxan-4-yl]amino}-1-(2,2,2-trifluoroethyl)-1H-indol-2-yl)-1,2,4-oxadiazol-5-yl]methyl}-1-[1-(methoxymethyl)cyclopropyl]-1H-pyrrole-3-carboxamide] | * (* = 0 μM ≤ SC150 < 0.1 μM)
22 | CN1CCC(Nc2cccc3c2cc(-c2noc(CNc4ccccc4)n2)n3CC(F)(F)F)CC1 [Compound 142B, N-(1-methylpiperidin-4-yl)-2-{5-[(phenylamino)methyl]-1,2,4-oxadiazol-3-yl}-1-(2,2,2-trifluoroethyl)-1H-indol-4-amine] | * (* = 0 μM ≤ SC150 < 0.1 μM)
23 | CN1CC[C@@H](Nc2cccc3c2cc(-c2nnc(CNC(=O)C4COC4)s2)n3CC(F)(F)F)[C@@H](F)C1 (racemic) [Compound 36B, (+/−)-N-{[5-(4-{[(3R,4S)-3-fluoro-1-methylpiperidin-4-yl]amino}-1-(2,2,2-trifluoroethyl)-1H-indol-2-yl)-1,3,4-thiadiazol-2-yl]methyl}oxetane-3-carboxamide] | ** (** = 0.1 μM ≤ SC150 < 0.5 μM)
